Counter-ions that a name gives are not always drawn.

For one test, the system named is mood stabilisation or epileptic symptoms or events.
Test: not given
Conditions: in vivo; cited from earlier work.
Regarding `NC(=O)N1c2ccccc2C=Cc2ccccc21` [Carbamazepine], the “typical dose for treating epileptic seizures” value was 400 to 800 mg/day.

The same test, now with this note: usual minimum anti-convulsant dose per day; cited from earlier work.
On to `CN1C(=O)CC(c2ccccc2)C1=O` (stereo not shown) [Phensuximide], for which the “Minimum Dose/day effective for mood stabilisation or treatment of epileptic symptoms or events” value (“Minimum Dose/day effective” for short) was 1000 mg.

As to `CN1C(=O)CC(C)(c2ccccc2)C1=O` (stereo not shown) [Methsuximide], the “Minimum Dose/day effective” value is 300 mg.

For `CCC1(C)OC(=O)N(C)C1=O` (stereo not shown) [Paramethadione], the “Minimum Dose/day effective” value was 300 mg.

In the case of `CCC1(c2ccccc2)C(=O)NCNC1=O` [Primidone], the “Minimum Dose/day effective” value was 750 mg.

With `CN1C(=O)OC(C)(C)C1=O` [Trimethadione], the “Minimum Dose/day effective” value was 900 mg.

`COC[C@@H](NC(C)=O)C(=O)NCc1ccccc1` [Lacosamide]: the “Minimum Dose/day effective” value is reported as 200 mg.

Regarding `Cc1ccsc1C(=CCCN1CCC[C@@H](C(=O)O)C1)c1sccc1C` [Tiagabine Hydrochloride], the “Minimum Dose/day effective” value is reported as 30 mg.

For the molecule `CCC1(c2ccccc2)C(=O)NC(=O)NC1=O.CNC(C)CC1CCCCC1` [Barbexaclone], the “Minimum Dose/day effective” value is listed as 200 mg in divided doses.

Turning to `NS(=O)(=O)c1ccc(N2CCCCS2(=O)=O)cc1` [Sultiame], the “Minimum Dose/day effective” value is reported as 200 mg.

Consider `O=C1NC(c2ccccc2)(c2ccccc2)C(=O)N1COP(=O)(O)O` [Fosphenytoin Sodium], for which the “Minimum Dose/day effective” value is recorded as 10 mg/kg.

Turning to `NC(=O)N1c2ccccc2CC(=O)c2ccccc21` [Oxcarbazepine], the “Minimum Dose/day effective” value is 600 mg.

For `CCC(C(=O)NC(N)=O)c1ccccc1` (stereo not shown) [Pheneturide], the “Minimum Dose/day effective” value is recorded as 600 mg.

For the molecule `CCC1(c2ccccc2)NC(=O)N(C)C1=O` (stereo not shown) [Methoin], the “Minimum Dose/day effective” value is 1000 mg.

With `NC(=O)OCC(COC(N)=O)c1ccccc1` [Felbamate], the “Minimum Dose/day effective” value was 1200 mg.

For `Nc1nnc(-c2cccc(Cl)c2Cl)c(N)n1` [Lamotrigine, 3,5-diamino-6-(2,3-dichlorophenyl)-1,2,4-triazine], the “Minimum Dose/day effective” value is 100 mg.

Turning to `O=C1CN=C(c2ccccc2Cl)c2cc([N+](=O)[O-])ccc2N1` [Clonazepam], the “Minimum Dose/day effective” value is given as 1 mg.

Turning to `N#Cc1ccccc1-c1cc(-c2ccccn2)cn(-c2ccccc2)c1=O` [Perampanel], the “Minimum Dose/day effective” value is listed as 2 mg.

In the case of `CC[C@@H](C(N)=O)N1CCCC1=O` [Levetiracetam], the “Minimum Dose/day effective” value is on record as 1000 mg.

Consider `CCC1(c2ccccc2)NC(=O)N(C)C1=O` (stereo not shown) [Mephenytoin], for which the “Minimum Dose/day effective” value was 200 mg.

Regarding `NS(=O)(=O)Cc1noc2ccccc12` [Zonisamide], the “Minimum Dose/day effective” value is listed as 200 mg.

For the molecule `CCC1(c2ccc(N)cc2)CCC(=O)NC1=O` (stereo not shown) [Aminoglutethimide], the “Minimum Dose/day effective” value is reported as 125 mg.

Take `CCC1(C)CC(=O)NC1=O` (stereo not shown) [Ethosuximide]: the “Minimum Dose/day effective” value was 1000 mg.

In the case of `NC(=O)NC(=O)Cc1ccccc1` [Phenacemide], the “Minimum Dose/day effective” value is 500 mg.

Regarding `CC(C)C[C@H](CN)CC(=O)O` [Pregabalin, (S)-3-(aminomethyl)-5-methylhexanoic acid], the “Minimum Dose/day effective” value is reported as 300 mg.

`CCN1C(=O)OC(C)(C)C1=O` [Ethadione]: the “Minimum Dose/day effective” value is reported as 1000 mg.

`CCN1C(=O)NC(c2ccccc2)C1=O` (stereo not shown) [Ethotoin]: the “Minimum Dose/day effective” value is given as 1000 mg.

Regarding `NC(=O)N1c2ccccc2C=Cc2ccccc21` [Carbamazepine], the “Minimum Dose/day effective” value was 400 mg.

Consider `CCC[C@@H]1CC(=O)N([C@@H](CC)C(N)=O)C1` [Brivaracetam], for which the “Minimum Dose/day effective” value is on record as 100 mg.

Consider `COC1=CC(=O)OC1C(O)c1ccccc1Cl` (stereo not shown) [Losigamone], for which the “Minimum Dose/day effective” value was 1500 mg.

For `NCC1(CC(=O)O)CCCCC1` [Gabapentin, 2-[1-(aminomethyl)cyclohexyl]acetic acid], the “Minimum Dose/day effective” value is 900 mg.

With `C=CC(N)CCC(=O)O` (stereo not shown) [Vigabatrin], the “Minimum Dose/day effective” value was 1000 mg.

The same test, now with this note: usual minimum anti-convulsant dose; cited from earlier work.
On to `CN1C(=O)CC(=O)N(c2ccccc2)c2cc(Cl)ccc21` [Clobazam], for which the “Minimum Dose/day effective” value is given as 5 mg/kg daily.

A further test deals with adults with ADHD.
Test: not given
The conditions noted are these: person, ADHD; 37.5 mg oxycarbamazepine added to dexamphetamine 40 mg and 'sodium to operate' 400 mg daily. Here is the method:
In the clinical setting a number of adults with ADHD experienced a combination therapy of stimulant medication (dexamphetamine) in combination with sodium valproate (VPA). The initial dosages used were from 15 to 70 mg/day of dexamphetamine and from 100 to 700 mg/day of VPA (Epilim) (=approximately 2 to 10 mg/kg/day).
The determination of the dose for the dexamphetamine was undertaken in a clinical sensitive open label manner. The dose was titrated upwards dependent on the clinical response and the freedom from side-effects. The dose range was between 15 and 70 mg a day. The frequency of the dosing also varied dependent upon the clinical response. The usual dose interval was between two to four hours. This dosing adjustment took place prior to the commencement of the sodium valproate. The sodium valproate medication was initiated once a day at 50 mg tablet or elixir and titrated upwards dependent on response, but not more than one increase every three days. The dose was given as a once or twice a day regime. During the titration phase, if clinically possible, no other adjustments to the pharmacotherapy were undertaken.
In the case of `NC(=O)N1c2ccccc2CC(=O)c2ccccc21` [Oxcarbazepine], the “clinical outcome (case)” value was “significant improvement in their cognitive functioning”.

The same test, now with this note: person; oxycarbamazepine dose increased to 75 mg.
Consider `NC(=O)N1c2ccccc2CC(=O)c2ccccc21` [Oxcarbazepine], for which the “clinical outcome (case)” value was “improved again”.

The same test, now with this note: person; switched to carbamazepine.
As for `NC(=O)N1c2ccccc2C=Cc2ccccc21` [Carbamazepine], the “clinical outcome (case), compared with oxycarbamazepine” value is “less effective”.

The test system of a further test is individuals with developmental dyspraxia / poor coordination. Kind of test: Treatment of developmental dyspraxia, clinical observation. It counts as in vivo, human. The conditions noted are these: person, ADHD; dexamphetamine 25 mg daily augmented with atomexetine 60 mg and sodium valproate 150 mg. The text has this: Many of the individuals treated at this clinic, with a diagnosis of ADHD and/or pervasive development disorder such Asperger's Syndrome or autism also present with symptoms consistent with a diagnosis of a developmental coordination disorder. They are often described as ‘unco’ (unco-ordinated) by their peers and experience victimization, poor self-esteem and frustration as a consequence of their poor coordination. […] Individuals have described a sense of having more time to coordinate movements and to understand and integrate their own activity appropriately within a team sport such as soccer, which has previously eluded them. Individuals have felt frustration at being able to practise repeatedly an activity or skill only to be unable to put it into practice when required, within the play of a match. It is proposed that individuals were previously unable to process and plan their own coordination but remain aware of the general activity in which they were participating.
With `CNCC[C@@H](Oc1ccccc1C)c1ccccc1` [atomexetine, (3R)—N-methyl-3-(2-methylphenoxy)-3-phenyl-propan-1-amine], the “clinical outcome (case)” value is “Significant improvement in psychosocial functioning”.

(Values after patent publication US10028971B2, “Compositions and methods for treating psychiatric disorders” (GOSFORTH CENTRE (HOLDINGS) PTY LTD., priority 2008, dated 2018).)
